# Source: patent US10023587B2, “Oxabicycloheptanes and oxabicycloheptenes, their preparation and use” (LIXTE BIOTECHNOLOGY, INC., priority 2007, dated 2018)
# Entries after “also recorded” stand apart in the source; their conditions may differ. Like-named read-outs stand apart in the source and are kept apart here.
# How the values were obtained:
# [1] = tested on: LNCAP cells; test: CellTiter-Glo assay, LNCAP; type: cell-based; settings: Homo sapiens; LNCAP Prostate, 72 hr; read-out: IC50 (50% Inhibition of Proliferation)
# Method: (§1) MDA-MB-231, HT-29, NCI-H460, NCI-H522, NCI-H69, GXF-209, HepG2, OVAR-3, PANC-1, DU-145, LNCAP, HL-60, K-562, and MOLT-4 cell lines were either obtained from the American Type Culture Collection (ATCC; Manassas, Va.), or from the National Cancer Institute (NCI; Frederick, Md.). RPMI-1640 media, L-glutamine dipeptide (HyQ SG-200), and HEPES were obtained from Hyclone (Logan, Utah).
# (§2) All cell lines were routinely cultured twice weekly in RPMI-1640 medium supplemented with 2 mM L-glutamine dipeptide, 10 mM HEPES, and 10% FBS.
# (§3) The adherent cell lines MDA-MB-231, HT-29, NCI-H460, NCI-H522, GXF-209, HepG2, OVAR-3, PANC-1, DU-145, and LNCAP cells were each seeded into two 96-well plates at 2,500 cells per well in a total volume of 50 uL and incubated in a 37° C. humidified 5% CO2 cell culture incubator overnight. The suspension cell lines NCI-H69, HL-60, K-562, and MOLT-4 were each seeded into two 96-well plates at 10,000 cell per well in a total volume of 50 uL and incubated in a 37° C. humidified 5% CO2 incubator overnight.
# (§4) This was followed by making 2× stocks of the final concentrations required in RPMI-1640 medium. […]
# (§5) Briefly, plates were removed from the incubator and placed on the bench at room temperatures for 30 minutes. […] Luminescence was then recorded using the PerkinElmer Microbeta scintillation and luminescence counter (Trilux).
# [2] = tested on: MOLT-4 cells; test: CellTiter-Glo assay, MOLT-4; type: cell-based; settings: Homo sapiens; MOLT-4 acute lympho, 72 hr; read-out: IC50 (50% Inhibition of Proliferation)
# Method: as §1, §2, §3, §4, §5
# [3] = tested on: A. fumigatus; test: Antifungal susceptibility testing (broth dilution), A. fumigatus; type: cell-based, Aspergillus fumigatus; settings: for MIC: Aspergillus fumigatus, read-out: minimum inhibitory concentration (MIC)
# Method: (§6) Anti-fungal testing was completed with a common lot for compounds 100 and 102.
# (§7) A 10 mg portion of each powder was weighed out and added to 1 ml of sterile distilled water for compound 100 and DMSO for compound 102. The resulting concentration of […] was diluted to a working concentration of 640 μg/ml for each compound. All subsequent dilutions were also made using the respective diluents. Final testing concentrations ranged from 0.125-64 μg/ml.
# (§8) A total of 23 isolates were tested to include 3 Candida albicans, 3 Candida glabrata, 3 Cryptococcus neoformans, 3 Aspergillus fumigatus, 3 Rhizopus oryzae, 3, Fusarium solani, 3 Pseudallescheria boydii, and 2 […] rubrum. All isolates were clinical isolates submitted to the Fungus Testing Laboratory for evaluation. Antifungal susceptibility testing was accomplished according to the methods outlined in the National Committee for Clinical Laboratory Standards, M-27A2, Reference Method for Broth Dilution Antifungal Susceptibility Testing of Yeasts; Approved Standard, and M38-A “Reference Method for Broth Dilution Antifungal Susceptibility Testing of Conidium-Forming Filamentous Fungi; Approved Standard”. This includes testing in RPMI-1640 with glutamine and without bicarbonate, an inoculum size of 0.5-2.5×10^3 for yeasts or 1-5×10^4 for moulds, and incubation at 35° C. for 24 and 48 hours.
# [4] = tested on: F. solani; test: Antifungal susceptibility testing (broth dilution), F. solani; type: cell-based, Fusarium solani; settings: for MIC: Fusarium solani, read-out: minimum inhibitory concentration (MIC)
# Method: as §6, §7, §8
# [5] = tested on: GBM cell line U373; test: Inhibition of growth of GBM cell line U373 by single agents (cell counts); type: cell-based, human; settings: for Inhibition of growth of cell line U373 (in words): single agent, 7 days
# Text: From graphic plots of the glioblastoma multiforme GBM cell line U373 (available from the National Institute of Neurological Disorders and Stroke Molecular Pathogenesis Unit, Building 10, Room 5 D37, National Institutes of Health, 900 Rockville Pike, Bethesda, Md., 20892) as a function of exposure to different doses of drug for 7 days, the concentration of each compound that inhibited brain tumor cell proliferation by 50% (IC50) was estimated.
# To identify novel therapeutic targets for the treatment of glioblastoma multiforme (GBM), cantharidin analogues were evaluated for their ability to inhibit growth of glioblastoma multiforme cells. Specifically, GBM cell line U373 was used in evaluations.
# The total number of cells is counted in the triplicate cultures at each dose and in controls after 7 days and the average number of cells and the standard deviation is determined.
# The amount of inhibition of GBM cell growth is expressed as the proportion of the number of cells in the experimental dishes compared to the number of cells in control dishes containing only the drug vehicle and culture medium. The average percent of control is plotted and bracketed by one standard deviation calculated from the triplicate measurements.
# For all cell culture experiments, cells are allowed to grow in the presence or absence of different concentrations of drug or in the presence of the vehicle used to dissolve the drug, PBS for compound 100 and DMSO for compound 102. Cell counts are done in triplicate on day 3 and day 7 and inhibition of growth is expressed as a percentage of the number of cells present in the experimental well divided by the number of cells in a control well.
# [6] = tested on: Fourteen Human Cancer Cell Lines; test: CellTiter-Glo assay, panel of fourteen human cancer cell lines; type: cell-based; settings: compared with positive comparator doxorubicin
# Method: as §1, §2, §3, §4, §5
# [7] = tested on: NCI-H69 cells; test: CellTiter-Glo assay, NCI-H69; type: cell-based; settings: Homo sapiens; NCI-H69 Lung small cell, 72 hr; read-out: IC50 (50% Inhibition of Proliferation)
# Method: as §1, §2, §3, §4, §5
# [8] = tested on: NCI-H522 cells; test: CellTiter-Glo assay, NCI-H522; type: cell-based; settings: Homo sapiens; NCI-H522 Lung adenoca, 72 hr; read-out: IC50 (50% Inhibition of Proliferation)
# Method: as §1, §2, §3, §4, §5
SMILES,IC50 [1] [µM],IC50 [2] [µM],"minimum inhibitory concentration (MIC) ([3]; isolate 06-4126, 24 Hours) [µg/mL]","minimum inhibitory concentration (MIC) ([3]; isolate 06-4126, 48 Hours) [µg/mL]","minimum inhibitory concentration (MIC) ([3]; isolate 07-2039, 24 Hours) [µg/mL]","minimum inhibitory concentration (MIC) ([3]; isolate 07-2039, 48 Hours) [µg/mL]","minimum inhibitory concentration (MIC) ([4]; isolate 07-1755, 24 Hours) [µg/mL]","minimum inhibitory concentration (MIC) ([4]; isolate 07-1755, 48 Hours) [µg/mL]","minimum inhibitory concentration (MIC) ([4]; isolate 07-1867, 24 Hours) [µg/mL]","minimum inhibitory concentration (MIC) ([4]; isolate 07-1867, 48 Hours) [µg/mL]",Inhibition of growth of cell line U373 (in words) [5],Activity against the fourteen cell lines (in words) [6],IC50 [7] [µM],IC50 [8] [µM],further results
"CC(C)(C)OC(=O)N1CCN(C(=O)C2C(C(=O)O)[C@H]3CC[C@@H]2O3)CC1 (stereo in doubt) [Compound 102, 4-(3-Carboxy-7oxa-bicyclo[2.2.1]heptane-2-carbonyl)piperazine-1-carboxylic acid tert-butyl ester]",0.48,5.6,>64,>64,>64,>64,>64,>64,>64,>64,highly potent,significant activity,24.6,2.2,"MIC ([3]; isolate 05-388, 24 Hours): > 64 µg/mL; MIC ([3]; isolate 05-388, 48 Hours): > 64 µg/mL; MIC ([4]; isolate 07-1399, 24 Hours): > 64 µg/mL; MIC ([4]; isolate 07-1399, 48 Hours): > 64 µg/mL"
"CN1CCN(C(=O)C2C(C(=O)O)[C@H]3CC[C@@H]2O3)CC1 (stereo partly drawn) [Compound 100, Endothall 4-Methylpiperazine Monoamide]",1.5,5.7,>64,>64,>64,>64,>64,>64,>64,>64,potent inhibitor of GBMs in vitro; also recorded: Increasing dosages demonstrate a greater inhibition of growth; also recorded: modest inhibition of growth,significant activity,23.9,3.4,"MIC ([3]; 24 h): > 64 µg/mL; MIC ([3]; 48 h): > 64 µg/mL; MIC ([4]; 24 h): > 64 µg/mL; MIC ([4]; 48 h): > 64 µg/mL; Inhibitory value against U373, comparison of the two compounds ([5]; 10 μM, seven days (FIG. 8)): identical inhibitory values; IC50 ([5]; Homo sapiens, U373 MG, 168 h, U373, exposure for 7 days, estimated from graphic plots (FIG. 1), read-out: concentration that inhibited brain tumor cell proliferation by 50% (IC50)): 3 µM; Inhibition of growth of cell line U373 (in words) ([5]; listed as compound 100): inhibitory activities at low micromolar concentrations; also recorded: dose dependent inhibition"
